Each structure is given as a SMILES string. Converted amounts (≈) assume the structure as drawn. Where two headings read alike, the source gives them in different places. Where only a bound is given, the exact number is not on record here.

Consider one compound from US4565861A, “Serirubicum” (Microbial Chemistry Research Foundation, priority 1983, dated 1986).

One experiment has as its system L1210 cells. In words: Growth inhibition of cultured L1210 cells. The experiment is classed as cell-based. From the text:
(§1) These findings indicated its therapeutic effect on tumors in experimental animals.

In experiment [1] the test system is RNA synthesis in L1210 cells. In words: Inhibition of RNA synthesis in L1210 cells. It is filed as cell-based.
Excerpt: as §1

The subject of the next experiment is L1210 leukemia cells. The experiment is classed as in vivo, CDF1 mice. To be noted: i.p., daily for 10 days. The method, then:
CDF1 mice were intraperitoneally implanted with 1×10^5 L1210 leukemia cells/mouse as a suspension. After the implantation, 0.25 ml of a solution containing the test compound was intraperitoneally injected into each mouse, each day, for 10 days, beginning on the day of implantation.
The increase of life span (%) compared with the control group consisting of mice administered with physiological saline solution instead of the test compound solution was calculated from the following equation: [formula]

Experiment [2] has as its system DNA synthesis in L1210 cells. The experiment is described as follows: Inhibition of DNA synthesis in L1210 cells. The experiment is classed as cell-based.
Excerpt: as §1

Another experiment deals with S. aureus MS8710. In words: Antimicrobial activity, agar dilution method. The experiment is classed as cell-based. The source says:
(§2) The antimicrobial activity of serirubicin according to the present invention was examined. It is expressed as minimum inhibitory concentration (MIC) determined by the agar dilution method.

The subject of the next experiment is M. lysodeikticus IF03333. The experiment is described as follows: Antimicrobial activity, agar dilution method. It is filed as cell-based.
Excerpt: as §2

In the next experiment the test system is B. subtilis PCI219. In words: Antimicrobial activity, agar dilution method. The experiment is classed as cell-based.
Excerpt: as §2

Another experiment has as its system Coryn. bovis 1810. In words: Antimicrobial activity, agar dilution method. It is filed as cell-based.
Excerpt: as §2

The test system of another experiment is Sal. typhi T-63. The experiment is described as follows: Antimicrobial activity, agar dilution method. It is filed as cell-based.
Excerpt: as §2

The next experiment concerns S. aureus 209P. In words: Antimicrobial activity, agar dilution method. It is filed as cell-based.
Excerpt: as §2

In another experiment the test system is B. cereus ATCC10702. In words: Antimicrobial activity, agar dilution method. It is filed as cell-based.
Excerpt: as §2

Another experiment relates to S. aureus MS9610. The experiment is described as follows: Antimicrobial activity, agar dilution method. The experiment is classed as cell-based.
Excerpt: as §2

Another experiment deals with S. aureus Smith. The experiment is described as follows: Antimicrobial activity, agar dilution method. It is filed as cell-based.
Excerpt: as §2

Experiment [3] deals with Protein synthesis in L1210 cells. In words: Inhibition of protein synthesis in L1210 cells. The experiment is classed as cell-based. To be noted: at 10 μg/ml.
Excerpt: as §1

As for `CCC1(O)CC(OC2CC(N(C)C)C(OC3CC4OC5CC(=O)C(C)OC5OC4C(C)O3)C(C)O2)c2cc3c(c(O)c2C1OC1CC(N(C)C)C(OC2CC4OC5CC(=O)C(C)OC5OC4C(C)O2)C(C)O1)C(=O)c1cccc(O)c1C3=O` (stereo not drawn) [serirubicin], in the experiment on L1210 cells (L1210 cells), the “ID50 Growth” value stood at 0.004 µg/mL (≈ 0.00343 µM). For the same compound, the “Inhibition of growth (in words)” value in the experiment with L1210 cells (cultured L1210 cells) is listed as “inhibited the growth of cultured L1210 cells at very low concentrations”. In addition, the “ID50 RNA synthesis” value in [1] (L1210 cells) was found to be 0.086 µg/mL (≈ 0.0738 µM). Further, the “Inhibition of RNA synthesis (in words)” value in experiment [1] (cultured L1210 cells) is “RNA synthesis was inhibited at particularly low concentration”. Also, the “Increase of life span” value in the experiment with L1210 leukemia cells (0.031 mg/kg/day) is recorded as 119%; with L1210 leukemia cells (0.063 mg/kg/day) it was 113%; with L1210 leukemia cells (0.125 mg/kg/day), 137%; in the experiment on L1210 leukemia cells (0.25 mg/kg/day), 274%; with L1210 leukemia cells (0.5 mg/kg/day), 143%; with L1210 leukemia cells (1.0 mg/kg/day), 149%. For the same compound, in experiment [2], the “ID50 DNA synthesis” value stood at 0.46 µg/mL (≈ 0.395 µM). The minimal inhibitory concentration (MIC) with S. aureus MS8710 was 0.78 µg/mL (≈ 0.669 µM); in the experiment with M. lysodeikticus IF03333, 0.78 µg/mL (≈ 0.669 µM); in the experiment on B. subtilis PCI219, 0.78 µg/mL (≈ 0.669 µM); with Coryn. bovis 1810, 0.39 µg/mL (≈ 0.335 µM); in the experiment on Sal. typhi T-63, above 3.12 µg/mL; with S. aureus 209P, 0.78 µg/mL (≈ 0.669 µM). The values for the minimal inhibitory concentration (MIC) in the experiment on B. cereus ATCC10702, against S. aureus MS9610 and with S. aureus Smith were 0.78 µg/mL (≈ 0.669 µM), 0.78 µg/mL (≈ 0.669 µM) and 1.56 µg/mL (≈ 1.34 µM), respectively. For the same compound, the Protein synthesis inhibition in [3] came out at 32%.
